From patent publication US8440725B2, “Synergistic preparations based on mixtures of glycerol ether with aromatic alcohol for controlling mycobacteria” (Air Liquide Sante (International), priority 2002, dated 2013)

Test system: Mycobacterium terrae (ATCC15755)
Experiment: Quantitative suspension test Mycobacterium terrae without load, room temperature
Format: cell-based
Conditions: 0.1% added to 30% strength ethanol, exposure time 60 minutes
Experimental: Various aqueous disinfectants were tested with respect to their activity towards Mycobacterium terrae, cell count 1 to 3×10^9 in a quantitative suspension test without load. The following reduction factors were measured, a reduction factor>5 corresponding to a sufficient Tb activity. For this various amounts of ethanol were added to aqueous active compound solutions and after exposure for 15, 30 and 60 minutes were tested. For testing the tuberculocidal activity, the quantitative suspension test Mycobacterium terrae (ATCC15755) was used in accordance with the Deutsche Gesellscaft für Hygiene and Mikrobiologie [German Society for Hygiene and Microbiology] of 30 Apr. 1997 (Hyg. Med. 22, 1997, issue 6, pages 278ff.).

CCCCC(CC)COCC(O)CO (stereo not shown) [SC 50, 1-(2-ethylhexyl) glycerol ether]
Tb activity (reduction factor>5 = sufficient): sufficiently Tb active
